This passage reports IC50 and inhibition results from patent US20170137410A1, “FUSED CYCLOALKYL-PYRIMIDINE COMPOUNDS AND USES THEREOF” (Medivation Technologies, Inc., priority 2014, published 2017).

What all share (type): biochemical
One experiment addresses T1, activated IGF-1R (Homo sapiens, UniProt P08069).
T1 construct: purchased Millipore 14-802
Put plainly: In vitro IGF-1R enzymatic assay (ADP-Glo). The conditions noted are these: ATP 100 μM. The procedure, abridged:
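Inhibition of activated human IGF-1R kinase was measured in vitro with the Promega ADP-Glo kinase assay kit. Each reaction contained 1 ng of active recombinant IGF-1R (Millipore #14-802), IGF-1R tide substrate (Millipore #12-527) at 125 μM and ATP at 100 μM. Reactions ran at 30° C. for 20 min across rising compound concentrations.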

The next experiment deals with T2, FLT3 (Homo sapiens, UniProt P36888).
T2 sequence (P36888 27-993): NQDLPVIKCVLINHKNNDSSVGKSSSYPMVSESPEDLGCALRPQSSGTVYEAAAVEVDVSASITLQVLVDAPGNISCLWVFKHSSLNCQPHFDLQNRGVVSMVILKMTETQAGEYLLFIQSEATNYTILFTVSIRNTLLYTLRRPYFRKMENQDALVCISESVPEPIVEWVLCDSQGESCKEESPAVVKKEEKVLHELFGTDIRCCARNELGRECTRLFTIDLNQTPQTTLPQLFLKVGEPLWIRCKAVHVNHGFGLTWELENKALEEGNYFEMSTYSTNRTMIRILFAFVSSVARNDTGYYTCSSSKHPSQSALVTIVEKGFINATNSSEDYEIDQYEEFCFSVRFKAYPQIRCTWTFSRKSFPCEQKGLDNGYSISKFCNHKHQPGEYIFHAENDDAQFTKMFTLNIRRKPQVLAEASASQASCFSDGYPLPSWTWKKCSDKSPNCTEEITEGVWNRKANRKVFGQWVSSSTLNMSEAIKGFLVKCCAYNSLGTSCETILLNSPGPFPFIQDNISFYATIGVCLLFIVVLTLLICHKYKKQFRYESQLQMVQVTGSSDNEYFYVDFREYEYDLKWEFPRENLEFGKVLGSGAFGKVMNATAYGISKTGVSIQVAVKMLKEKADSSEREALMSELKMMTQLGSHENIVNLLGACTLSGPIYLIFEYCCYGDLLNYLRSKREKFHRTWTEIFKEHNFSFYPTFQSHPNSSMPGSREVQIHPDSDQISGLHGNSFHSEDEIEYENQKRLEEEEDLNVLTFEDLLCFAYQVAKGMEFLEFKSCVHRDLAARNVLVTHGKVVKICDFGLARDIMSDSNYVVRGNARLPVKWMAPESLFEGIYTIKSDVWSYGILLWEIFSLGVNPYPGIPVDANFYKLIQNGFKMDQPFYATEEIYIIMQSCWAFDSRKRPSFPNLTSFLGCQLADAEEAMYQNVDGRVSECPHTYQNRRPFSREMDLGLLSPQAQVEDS
As to the kind of experiment: HotSpot kinase assay against FLT3. The conditions noted are these: HotSpot 33P assay, ATP 10 μM. As to the method:
Kinase assays were performed using test compounds against a panel of FLT3 kinases: FLT3; FLT3 (D835Y); and FLT3 (ITD). Compounds were prepared as 10 mM stock solutions in DMSO prior to use in the assay. Each compound was tested at 10 concentrations with three-fold serial dilution starting at 1 μM against the three kinases. The control compound, staurosporine, was tested at 10 concentrations with four-fold serial dilution starting at 20 μM. IC50 values and curve fits were obtained using Prism (GraphPad Software). The screening was performed using the “HotSpot” assay platform. The assay measures the conversion of a peptide substrate to ^33P-labelled phosphorylated product. Briefly, specific kinase/substrate pairs along with required cofactors were prepared in reaction buffer. Specifically, the substrate was prepared in reaction buffer (20 mM Hepes, pH 7.5; 10 mM MgCl2; 1 mM EGTA; 0.02% Brij35; 0.02 mg/mL BSA; 0.1 mM Na3VO4; 2 mM DTT; 1% DMSO), followed by delivery of any required cofactor to the resulting substrate solution. The corresponding kinase was delivered into the substrate solution and the reaction mixture was mixed gently. Compound was delivered into the reaction mixture, followed 15-20 min later by addition of a mixture of ATP (Sigma, St. Louis Mo.) and ^33P ATP (specific activity 0.01 μCi/μL final; Perkin Elmer, Waltham, Mass.) to a final concentration of 10 μM to initiate the reaction. Reactions were carried out at RT for 120 min, followed by spotting of the reactions onto P81 ion exchange filter paper (Whatman #3698-915; Whatman Inc., Piscataway, N.J.). Unbound phosphate was removed by extensive washing of filters in 0.75% phosphoric acid. […] The percent of enzyme inhibition was calculated based on the percent of remaining kinase activity. IC50 values were determined.

For another experiment, the target named is ABL1 (Homo sapiens, UniProt P00519). Put plainly: HotSpot kinase assay against ABL1. The conditions noted are these: HotSpot 33P assay, ATP 10 μM-30 μM. As to the method:
(§1) The screening was performed using the “HotSpot” assay platform. The assay measures the conversion of a peptide substrate to ^33P-labelled phosphorylated product. Briefly, specific kinase/substrate pairs along with required cofactors were prepared in reaction buffer. Specifically, the substrate was prepared in reaction buffer (20 mM Hepes, pH 7.5; 10 mM MgCl2; 1 mM EGTA; 0.02% Brij35; 0.02 mg/mL BSA; 0.1 mM Na3VO4; 2 mM DTT; 1% DMSO), followed by delivery of any required cofactor to the resulting substrate solution. The corresponding kinase was delivered into the substrate solution and the reaction mixture was mixed gently. Compound was delivered into the reaction mixture, followed 15-20 minutes later by addition of a mixture of ATP (Sigma, St. Louis Mo.) and ^33P ATP (specific activity 0.01 μCi/μL final; Perkin Elmer, Waltham, Mass.) to a final concentration of 10 μM-30 μM to initiate the reaction. Reactions were carried out at RT for 120 min, followed by spotting of the reactions onto P81 ion exchange filter paper (Whatman #3698-915; Whatman Inc., Piscataway, N.J.). Unbound phosphate was removed by extensive washing of filters in 0.75% phosphoric acid. […] The percent of enzyme inhibition was calculated based on the percent of remaining kinase activity. IC50 values and curve fits were obtained using Prism (GraphPad Software).

For the next experiment, the target named is ABL2/ARG (Homo sapiens, UniProt P42684). As to the kind of experiment: HotSpot kinase assay against ABL2/ARG. The conditions noted are these: HotSpot 33P assay, ATP 10 μM-30 μM. Here is the method:
as §1

For another experiment, the target named is ROS/ROS1 (Homo sapiens, UniProt P08922). As to the kind of experiment: HotSpot kinase assay against ROS/ROS1. The conditions noted are these: HotSpot 33P assay, ATP 10 μM-30 μM. Here is the method: as §1
Sequence of ROS/ROS1 (P08922 28-2347): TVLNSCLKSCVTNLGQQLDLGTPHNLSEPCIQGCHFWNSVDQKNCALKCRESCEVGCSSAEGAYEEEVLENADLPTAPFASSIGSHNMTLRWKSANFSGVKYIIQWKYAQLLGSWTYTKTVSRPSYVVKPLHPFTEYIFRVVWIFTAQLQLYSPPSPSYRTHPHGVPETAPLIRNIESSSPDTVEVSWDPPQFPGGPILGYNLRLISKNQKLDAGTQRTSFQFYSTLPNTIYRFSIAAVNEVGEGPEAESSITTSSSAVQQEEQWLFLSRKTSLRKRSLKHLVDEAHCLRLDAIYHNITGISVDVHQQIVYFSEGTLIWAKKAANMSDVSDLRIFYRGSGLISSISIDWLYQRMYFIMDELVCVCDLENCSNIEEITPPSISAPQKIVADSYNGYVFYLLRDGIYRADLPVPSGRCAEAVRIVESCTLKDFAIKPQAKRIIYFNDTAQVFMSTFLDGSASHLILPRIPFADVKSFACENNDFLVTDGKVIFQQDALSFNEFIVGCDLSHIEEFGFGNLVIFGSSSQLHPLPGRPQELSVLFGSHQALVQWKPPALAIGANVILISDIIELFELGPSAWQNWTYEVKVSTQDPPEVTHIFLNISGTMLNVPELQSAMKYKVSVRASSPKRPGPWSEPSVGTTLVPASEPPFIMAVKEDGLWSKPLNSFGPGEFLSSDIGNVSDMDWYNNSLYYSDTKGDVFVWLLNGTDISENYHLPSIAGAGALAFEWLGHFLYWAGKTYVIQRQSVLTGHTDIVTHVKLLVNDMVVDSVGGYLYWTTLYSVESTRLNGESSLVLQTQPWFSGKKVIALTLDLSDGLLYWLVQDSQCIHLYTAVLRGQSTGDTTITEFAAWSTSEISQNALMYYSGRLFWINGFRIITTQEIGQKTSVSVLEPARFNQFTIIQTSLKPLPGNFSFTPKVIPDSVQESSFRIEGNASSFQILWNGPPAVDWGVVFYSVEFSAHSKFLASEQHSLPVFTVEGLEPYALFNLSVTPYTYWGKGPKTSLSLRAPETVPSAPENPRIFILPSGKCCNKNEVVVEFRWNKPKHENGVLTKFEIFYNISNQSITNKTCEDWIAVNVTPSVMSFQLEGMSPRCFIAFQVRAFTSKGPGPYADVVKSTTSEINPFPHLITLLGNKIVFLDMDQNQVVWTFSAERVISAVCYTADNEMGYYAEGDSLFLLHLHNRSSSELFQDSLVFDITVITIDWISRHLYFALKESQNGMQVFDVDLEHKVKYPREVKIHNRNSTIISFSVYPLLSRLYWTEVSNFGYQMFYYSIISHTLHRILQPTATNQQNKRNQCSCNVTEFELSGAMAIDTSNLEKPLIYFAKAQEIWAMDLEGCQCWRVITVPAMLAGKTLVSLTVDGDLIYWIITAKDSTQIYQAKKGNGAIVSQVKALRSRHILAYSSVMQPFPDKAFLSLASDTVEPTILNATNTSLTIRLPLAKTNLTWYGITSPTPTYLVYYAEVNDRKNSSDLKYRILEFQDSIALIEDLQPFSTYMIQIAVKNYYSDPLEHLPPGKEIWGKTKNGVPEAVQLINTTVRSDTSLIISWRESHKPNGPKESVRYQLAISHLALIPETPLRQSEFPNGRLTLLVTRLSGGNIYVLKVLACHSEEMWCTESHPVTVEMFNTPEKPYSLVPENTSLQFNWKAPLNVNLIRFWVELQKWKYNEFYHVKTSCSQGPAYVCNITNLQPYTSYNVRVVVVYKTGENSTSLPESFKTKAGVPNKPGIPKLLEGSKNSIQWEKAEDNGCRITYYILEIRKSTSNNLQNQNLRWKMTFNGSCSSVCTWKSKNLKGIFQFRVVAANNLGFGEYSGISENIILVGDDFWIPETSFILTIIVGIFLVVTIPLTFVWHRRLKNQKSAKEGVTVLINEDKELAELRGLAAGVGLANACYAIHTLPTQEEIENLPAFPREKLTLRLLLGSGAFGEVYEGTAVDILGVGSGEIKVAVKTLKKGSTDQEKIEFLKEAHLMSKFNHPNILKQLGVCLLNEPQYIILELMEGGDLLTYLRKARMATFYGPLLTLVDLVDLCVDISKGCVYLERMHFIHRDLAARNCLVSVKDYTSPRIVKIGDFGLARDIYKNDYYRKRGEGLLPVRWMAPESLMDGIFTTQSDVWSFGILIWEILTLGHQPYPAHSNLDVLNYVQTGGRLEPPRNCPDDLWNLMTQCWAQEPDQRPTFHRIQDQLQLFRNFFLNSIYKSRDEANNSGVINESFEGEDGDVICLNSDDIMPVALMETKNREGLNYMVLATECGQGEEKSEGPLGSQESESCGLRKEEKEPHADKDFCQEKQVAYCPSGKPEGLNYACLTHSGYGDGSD

The structures appear in SMILES notation. Some results are limits rather than exact numbers.

Sequence of ABL1 (P00519 whole entry): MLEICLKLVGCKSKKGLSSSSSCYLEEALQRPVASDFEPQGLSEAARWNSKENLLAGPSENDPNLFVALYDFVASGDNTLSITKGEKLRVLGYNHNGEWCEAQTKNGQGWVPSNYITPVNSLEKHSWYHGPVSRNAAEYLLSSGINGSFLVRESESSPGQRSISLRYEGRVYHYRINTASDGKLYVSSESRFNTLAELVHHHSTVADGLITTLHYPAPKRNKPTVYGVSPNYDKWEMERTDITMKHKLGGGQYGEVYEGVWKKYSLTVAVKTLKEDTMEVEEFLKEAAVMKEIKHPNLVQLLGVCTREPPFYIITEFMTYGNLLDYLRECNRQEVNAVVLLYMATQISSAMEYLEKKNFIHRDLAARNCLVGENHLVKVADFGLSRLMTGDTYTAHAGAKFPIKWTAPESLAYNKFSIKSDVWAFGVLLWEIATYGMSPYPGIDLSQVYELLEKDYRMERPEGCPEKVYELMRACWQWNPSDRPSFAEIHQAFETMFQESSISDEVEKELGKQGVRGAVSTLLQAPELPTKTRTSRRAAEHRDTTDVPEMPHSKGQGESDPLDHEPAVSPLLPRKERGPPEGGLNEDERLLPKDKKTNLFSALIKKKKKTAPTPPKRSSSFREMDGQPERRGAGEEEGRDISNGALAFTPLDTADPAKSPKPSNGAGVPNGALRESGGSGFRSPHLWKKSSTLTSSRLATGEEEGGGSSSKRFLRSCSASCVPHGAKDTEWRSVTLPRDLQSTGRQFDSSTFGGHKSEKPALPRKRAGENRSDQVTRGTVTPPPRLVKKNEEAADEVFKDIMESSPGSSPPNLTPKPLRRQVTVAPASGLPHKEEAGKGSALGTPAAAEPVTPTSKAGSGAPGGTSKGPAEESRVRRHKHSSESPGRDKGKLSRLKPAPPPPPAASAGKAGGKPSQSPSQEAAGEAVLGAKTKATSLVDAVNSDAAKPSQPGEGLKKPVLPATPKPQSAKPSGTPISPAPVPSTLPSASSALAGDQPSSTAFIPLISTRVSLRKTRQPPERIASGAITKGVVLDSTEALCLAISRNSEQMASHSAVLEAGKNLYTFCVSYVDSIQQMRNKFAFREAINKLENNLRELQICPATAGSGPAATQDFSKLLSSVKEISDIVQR
T1 sequence (P08069 31-1367): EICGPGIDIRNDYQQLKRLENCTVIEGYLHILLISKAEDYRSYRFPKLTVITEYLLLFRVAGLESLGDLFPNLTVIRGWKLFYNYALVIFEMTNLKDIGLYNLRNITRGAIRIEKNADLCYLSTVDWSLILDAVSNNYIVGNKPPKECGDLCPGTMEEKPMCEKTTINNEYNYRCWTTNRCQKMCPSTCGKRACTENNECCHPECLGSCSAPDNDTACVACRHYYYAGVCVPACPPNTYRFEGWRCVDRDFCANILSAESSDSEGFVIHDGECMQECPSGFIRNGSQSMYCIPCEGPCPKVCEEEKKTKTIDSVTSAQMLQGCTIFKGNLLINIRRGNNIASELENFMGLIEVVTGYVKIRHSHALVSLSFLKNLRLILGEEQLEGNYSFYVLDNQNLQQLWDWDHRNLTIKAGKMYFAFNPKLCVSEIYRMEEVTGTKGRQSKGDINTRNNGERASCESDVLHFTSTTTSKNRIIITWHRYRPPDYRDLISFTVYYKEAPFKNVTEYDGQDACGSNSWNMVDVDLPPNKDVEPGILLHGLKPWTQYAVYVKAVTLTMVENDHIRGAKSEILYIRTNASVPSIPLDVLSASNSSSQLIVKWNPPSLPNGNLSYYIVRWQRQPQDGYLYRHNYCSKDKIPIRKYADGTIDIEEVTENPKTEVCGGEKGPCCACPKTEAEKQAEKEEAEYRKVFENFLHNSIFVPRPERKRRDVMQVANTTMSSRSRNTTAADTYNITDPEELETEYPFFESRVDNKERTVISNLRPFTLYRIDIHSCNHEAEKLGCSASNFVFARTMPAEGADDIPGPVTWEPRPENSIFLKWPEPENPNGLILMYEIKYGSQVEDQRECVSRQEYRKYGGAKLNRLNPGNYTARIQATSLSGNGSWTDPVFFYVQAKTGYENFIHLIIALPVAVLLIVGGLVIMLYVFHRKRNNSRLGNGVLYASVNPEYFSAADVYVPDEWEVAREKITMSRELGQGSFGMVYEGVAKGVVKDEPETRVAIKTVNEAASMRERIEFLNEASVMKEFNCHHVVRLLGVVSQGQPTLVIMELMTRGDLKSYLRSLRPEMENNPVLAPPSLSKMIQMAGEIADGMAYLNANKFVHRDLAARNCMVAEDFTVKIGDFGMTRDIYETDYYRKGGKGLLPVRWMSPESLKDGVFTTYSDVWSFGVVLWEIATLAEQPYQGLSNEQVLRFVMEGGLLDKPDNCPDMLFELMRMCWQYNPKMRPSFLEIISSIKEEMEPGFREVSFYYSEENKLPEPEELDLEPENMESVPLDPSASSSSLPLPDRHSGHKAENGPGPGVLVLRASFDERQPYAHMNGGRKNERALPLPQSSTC

Consider `CCN(C(=O)[C@@H]1CCCN1c1nc2c(c(Nc3cc(C(C)(C)C)[nH]n3)n1)CCC2)c1nccs1` [144b, (S)-1-(4-((5-(tert-butyl)-1 H-pyrazol-3-yl)amino)-6,7-dihydro-5H-cyclopenta[d]pyrimidin-2-yl)-N-ethyl-N-(thiazol-2-yl)pyrrolidine-2-carboxamide], for which the concentration for half-maximal inhibition (IC50) (commonly the concentration that gives 50% inhibition) at activated IGF-1R was 10300 nM; at FLT3, above 1000 nM; at ABL1 it was above 1000 nM; against ABL2/ARG, above 1000 nM; against ROS/ROS1, above 1000 nM.
As to `CCC(=O)N1CCN(C(=O)[C@@H]2CCCN2c2nc3c(c(Nc4cc(C5CCCC5)[nH]n4)n2)CCC3)CC1` [143b, (S)-1-(4-((4-((5-cyclopentyl-1H-pyrazol-3-yl)amino)-6,7-dihydro-5H-cyclopenta[d]pyrimidin-2-yl)prolyl)piperazin-1-yl)propan-1-one], the IC50 against activated IGF-1R was above 30000 nM; against FLT3 it was 58 nM; on ABL1, above 1000 nM; on ABL2/ARG, above 1000 nM; against ROS/ROS1 it was above 1000 nM.
Take `CCN(C(=O)[C@@H]1CCCN1c1nc2c(c(Nc3cc(C(C)C)[nH]n3)n1)CCC2)c1nccs1` [145b, (S)—N-ethyl-1-(4-((5-isopropyl-1H-pyrazol-3-yl)amino)-6,7-dihydro-5H-cyclopenta[d]pyrimidin-2-yl)-N-(thiazol-2-yl)pyrrolidine-2-carboxamide]: the results for the IC50 on activated IGF-1R and against FLT3 were 470 nM and 155 nM, respectively.
For the compound `CC(C)(C)c1cc(Nc2nc(N3CCC[C@@H]3C(=O)N3CCC(F)(F)CC3)nc3c2CCC3)n[nH]1` [142a, (R)-(1-(4-((5-(tert-butyl)-1H-pyrazol-3-yl)amino)-6,7-dihydro-5H-cyclopenta[d]pyrimidin-2-yl)pyrrolidin-2-yl)(4,4-difluoropiperidin-1-yl)methanone], the IC50 against activated IGF-1R is 4850 nM; against FLT3 it was above 1000 nM; against ABL1, above 1000 nM; against ABL2/ARG, above 1000 nM; on ROS/ROS1, above 1000 nM.
Consider `CC(C)c1cc(Nc2nc(N3CCC[C@H]3C(=O)N(C)c3nccs3)nc3c2CCC3)n[nH]1` [68b, (S)-1-(4-((5-isopropyl-1H-pyrazol-3-yl)amino)-6,7-dihydro-5H-cyclopenta[d]pyrimidin-2-yl)-N-methyl-N-(thiazol-2-yl)pyrrolidine-2-carboxamide], for which the half-maximal inhibitory concentration (IC50) at activated IGF-1R was 243 nM; against FLT3, 112 nM; at ABL1 it was 316 nM; against ABL2/ARG it was 41 nM; against ROS/ROS1 it was 4.41 nM. In addition, testing at 1 µM on activated IGF-1R (compound 1 μM) gave an inhibition of 84%.
Consider `CC1(C(=O)N2CCC(F)(F)CC2)CCCN1c1nc2c(c(Nc3cc(C4CCCC4)[nH]n3)n1)CCC2` (racemic) [compound 146, (1-(4-((5-cyclopentyl-1H-pyrazol-3-yl)amino)-6,7-dihydro-5H-cyclopenta[d]pyrimidin-2-yl)-2-methylpyrrolidin-2-yl)(4,4-difluoropiperidin-1-yl)methanone], for which the half-inhibitory concentration (IC50) against activated IGF-1R was above 30000 nM; against FLT3, 798 nM.
With `CC(C)(C)c1cc(Nc2nc(N3CCC[C@H]3C(=O)N3CCC(F)(F)CC3)nc3c2CCC3)n[nH]1` [142b, (S)-(1-(4-((5-(tert-butyl)-1H-pyrazol-3-yl)amino)-6,7-dihydro-5H-cyclopenta[d]pyrimidin-2-yl)pyrrolidin-2-yl)(4,4-difluoropiperidin-1-yl)methanone], the IC50 was above 10000 nM against activated IGF-1R; above 1000 nM on FLT3; above 1000 nM against ABL1; above 1000 nM at ABL2/ARG; above 1000 nM against ROS/ROS1.
Turning to `CCC(=O)N1CCN(C(=O)[C@H]2CCCN2c2nc3c(c(Nc4cc(C5CCCC5)[nH]n4)n2)CCC3)CC1` [143a, 1-(4-((4-((5-cyclopentyl-1H-pyrazol-3-yl)amino)-6,7-dihydro-5H-cyclopenta[d]pyrimidin-2-yl)-D-prolyl)piperazin-1-yl)propan-1-one], the IC50 at activated IGF-1R is 740 nM; on FLT3, 13.9 nM; on ABL1, above 1000 nM; on ABL2/ARG, 398 nM; against ROS/ROS1, 52.2 nM.
